# Reference: publication PMC12091851, “Replacing a Cereblon Ligand by a DDB1 and CUL4 Associated Factor 11 (DCAF11) Recruiter Converts a Selective Histone Deacetylase 6 PROTAC into a Pan‐Degrader” (Chemmedchem, 2025)
# Molecular target: T1, HDAC6 (Homo sapiens, UniProt Q9UBN7)
# T1 sequence (Q9UBN7 1-1215): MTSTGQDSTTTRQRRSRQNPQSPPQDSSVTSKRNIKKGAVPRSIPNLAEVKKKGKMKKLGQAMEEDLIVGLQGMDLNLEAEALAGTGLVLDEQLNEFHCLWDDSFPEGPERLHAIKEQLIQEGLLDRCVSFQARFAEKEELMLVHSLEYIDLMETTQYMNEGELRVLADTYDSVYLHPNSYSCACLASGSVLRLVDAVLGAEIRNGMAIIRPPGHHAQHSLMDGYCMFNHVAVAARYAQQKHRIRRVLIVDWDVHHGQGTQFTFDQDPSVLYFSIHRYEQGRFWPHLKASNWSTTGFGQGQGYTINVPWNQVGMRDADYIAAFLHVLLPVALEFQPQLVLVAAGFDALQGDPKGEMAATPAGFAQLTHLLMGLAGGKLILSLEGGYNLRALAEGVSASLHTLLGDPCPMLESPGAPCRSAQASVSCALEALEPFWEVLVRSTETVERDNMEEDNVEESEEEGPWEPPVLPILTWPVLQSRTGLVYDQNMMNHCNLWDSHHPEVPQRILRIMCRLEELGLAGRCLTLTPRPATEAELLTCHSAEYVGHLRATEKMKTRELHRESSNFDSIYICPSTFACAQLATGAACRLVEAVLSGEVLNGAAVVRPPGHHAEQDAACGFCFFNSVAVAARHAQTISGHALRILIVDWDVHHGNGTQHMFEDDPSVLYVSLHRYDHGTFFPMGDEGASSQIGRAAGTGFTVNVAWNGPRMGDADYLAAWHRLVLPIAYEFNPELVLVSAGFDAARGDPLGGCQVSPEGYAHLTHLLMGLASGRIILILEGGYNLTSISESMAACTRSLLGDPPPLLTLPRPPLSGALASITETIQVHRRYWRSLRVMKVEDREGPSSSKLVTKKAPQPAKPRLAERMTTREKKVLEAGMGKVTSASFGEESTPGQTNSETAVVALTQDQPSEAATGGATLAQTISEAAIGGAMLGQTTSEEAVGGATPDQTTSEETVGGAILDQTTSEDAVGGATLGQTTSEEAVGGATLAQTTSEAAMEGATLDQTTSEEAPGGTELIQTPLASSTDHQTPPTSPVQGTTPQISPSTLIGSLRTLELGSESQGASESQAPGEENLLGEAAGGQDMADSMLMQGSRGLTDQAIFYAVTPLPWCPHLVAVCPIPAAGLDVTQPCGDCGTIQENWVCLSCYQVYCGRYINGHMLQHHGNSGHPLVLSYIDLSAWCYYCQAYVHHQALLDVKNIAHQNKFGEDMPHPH
# Test: Simple Western immunoassay, HDAC6 levels in U-87MG cell lysates
# Assay type: cell-based
# Parameters: endogenous in cells; host or cells: MM.1S
# Settings: 10 μM, 24 h
# Protocol: Figure S5. Analysis of HDAC1 and 6 degradation in U-87MG cells. Simple western immunoassay analysis of U-87MG cell lysates. The cells were treated with the indicated compound (10 µM) or vehicle (DMSO) for 24 h. Top: Quantification of HDAC levels, presented as mean ± standard deviation of n = 2 biological replicates; Significance compared to vehicle: ns = p≥0.05 and *** = p≤0.001. Bottom:
# Representative images of n = 2 biological replicates.
# (1 picture or pasted object on this page, not shown here)
# 2. Biological Experiments
# No unexpected or unusually high safety hazards were encountered.
# The human multiple myeloma cell line MM.1S (CRL-2974) was obtained from American Type Culture Collection (ATCC, Manassas, VA, USA). […]
# Louis, MO, USA) according to manufacturer´s instructions. Protein content was determined by Pierce™ BCA Protein Assay Kit (Catalog# 23225, Thermo Fisher Scientific Inc.) according to manufacturer´s guidelines. […]
# Fluorescence Separation 8x25 Capillary Cartridges (Catalog# SM-FL004-1, Protein Simple, Bio-Techne, Minneapolis, MN, USA) were used for separation and the Anti-Mouse Detection Module (Catalog# DM-002, Protein Simple) was used for detection with addition of 20x Anti-Rabbit HRP […]
# Conjugate (Catalog# 043-426, Protein Simple) according to manufacturer´s instructions. […] Evaluation and quantification was performed with the compass software (6.2.0, Protein Simple). […]
structure (smiles),measurement,value
O=C(CCCCCCNC(=O)c1ccc(NC(=O)CCCCCCCCCCCN(C(=O)CCl)C(C(=O)NCc2ccccc2)c2ccc(Cl)c(Cl)c2)cc1)NO (stereo not shown) [Compound 1j],HDAC6 degradation in U-87MG cells,significant HDAC1 and 6 degradation
